Measured values published in article PMC6070649, “The solute transport and binding profile of a novel nucleobase cation symporter 2 from the honeybee pathogen Paenibacillus larvae” (FEBS Open Bio, 2018).

B1: PlUacP (P. larvae uric acid permease-like protein) (Paenibacillus larvae subsp. larvae DSM 25430) (protein)
chain: MRKSKVLTLGFQHVLAMYAGAVIVPLIVGSSLKLNAEQLAYLVSIDLLTCGIATLLQVWRNKFFGIGLPVMLGCTFTAVGPMIAIGSEYGMPAIYGSVLASGLFLALFAGFFGKLARFFPPIVTGSVVTIIGITLIPVAVQDMGGGQGSADFGSLSNLALSFGVLLFIILANRFFTGFIRAISILLGLIFGTIAGAFMGKVDIGPLLDASWFHGIHPFYFGFPTFHLPSILTMTLVAIVSVMESTGVFVALGKITEKELTADDLKRGYRSEGLASILGSIMNSFPYTTYSQNVGLIQISKVKSRDVVITAGFILVILGFMPKIAALTLLIPTAVLGGAMIAMFGMVVSSGIKMLGAIDLNNHENLLIIACSVSVGLGVTVAPNLFDHLPDSIKILTSNGIVAGSLTAILMNFLFTVGRKKQDESHASAENVHAA

Target: T1, PlUacP (P. larvae uric acid permease-like protein) (Paenibacillus larvae, UniProt V9VZQ8)
T1 construct: gene pbuX
T1 sequence (V9VZQ8 1-434): B1 chain
Test: competition with [3H]-adenine uptake in yeast
Format: cell-based
Conditions: competitive; 1 μM [2,8-3H]-adenine, 1 mM unlabelled competitor, S. cerevisiae RG191, 5 min

**Q.** How did the “% adenine uptake at 1 mM competitor” value turn out when `O=c1[nH]cnc2nc[nH]c12` [hypoxanthine] was run?
**A.** Its value is “guanine, cytosine, hypoxanthine, xanthine, uric acid, and uracil all compete with adenine”.

**Q.** `Nc1cc[nH]c(=O)n1` [cytosine] was tested. Which “% adenine uptake at 1 mM competitor” value did it give?
**A.** The value was “guanine, cytosine, hypoxanthine, xanthine, uric acid, and uracil all compete with adenine”.

**Q.** Which “% adenine uptake at 1 mM competitor” value does the source give for `O=c1[nH]c(=O)c2[nH]c(=O)[nH]c2[nH]1` [uric acid] here?
**A.** Its value is “guanine, cytosine, hypoxanthine, xanthine, uric acid, and uracil all compete with adenine”.

**Q.** How did the “% adenine uptake at 1 mM competitor” value turn out when `O=c1[nH]c(=O)c2[nH]cnc2[nH]1` [xanthine] was run?
**A.** The value was “guanine, cytosine, hypoxanthine, xanthine, uric acid, and uracil all compete with adenine”.

**Q.** `Nc1nc2[nH]cnc2c(=O)[nH]1` [guanine] was tested. Which “% adenine uptake at 1 mM competitor” value did it give?
**A.** The value was “guanine, cytosine, hypoxanthine, xanthine, uric acid, and uracil all compete with adenine”.

Substrate: Nc1ncnc2nc[nH]c12
Test: cells, lysate or membranes
Conditions: labelled compound [2,8-3H]-adenine 0.1-30 μM, S. cerevisiae RG191, 10 min, 100 mM citrate pH 3.5, 1% glucose, Lineweaver-Burk

**Q.** For B1, which Km is on record?
**A.** The Km was 7.04 ± 0.18 µM.
